The data set can be described thus: physchem. The note with it: octanol/water.
Regarding `C=CCC`, the log partition coefficient (logP) is 2.27.

In the case of `C1C2CC3CC1CC(C2)C3`, the logP was 3.98.

As to `Clc1cccc(Cl)c1-c1ccccc1`, the logP was 5.46.

The compound `CCCCCCCCCCC` registered a logP of 6.51.

`c1ccc2c(c1)ccc1cc3c(ccc4ccccc43)cc12` yielded a logP of 6.84.

`Clc1cc(Cl)c(-c2ccccc2)cc1Cl` came in with a lipophilicity (logP) of 6.17.

As for `Clc1cc(-c2ccccc2)c(Cl)c(Cl)c1Cl`, the logP is 6.88.

Consider `CSC`, for which the logP amounted to 0.842.

Regarding `CCCCCCCl`, the logP worked out at 3.58.

The compound `CCCCl` displayed a logP of 1.99.

Turning to `Cl/C=C/Cl`, the lipophilicity (logP) was 1.51.

For the compound `c1ccc2ccccc2c1`, the logP was 3.32.

For `CC(C)CCC[C@@H](C)[C@H]1CC[C@H]2C3=CC=C4C[C@@H](O)CC[C@]4(C)[C@H]3CC[C@]12C`, the logP is 8.65.

As to `Cc1cc(C)c(C)c(C)c1`, the logP is 4.74.

As for `Cc1cc(C)c(C)cc1C`, the logP was 4.74.

For the compound `Brc1ccccc1Br`, the logP is 3.59.

`CCCCCCCCl`: the logP was determined as 4.11.

`Clc1ccc(-c2ccccc2Cl)c(Cl)c1` yielded a logP of 6.17.

As for `CC(C)CC(C)(C)C`, the logP was found to be 4.54.

Regarding `Cc1cc2ccccc2cc1C`, the logP was found to be 4.61.

Compound `Clc1cc(Cl)c(-c2ccccc2)c(Cl)c1` yielded a logP of 6.17.

`Clc1ccc(Cl)c(-c2ccccc2)c1` yielded a logP of 5.46.

Turning to `Cc1ccccc1Cl`, the logP was determined as 3.5.

Consider `Cc1ccc2cc3ccccc3cc2c1`, for which the logP was 5.14.

Consider `CCCCC(C)C`, for which the logP came out at 4.27.

Compound `Cc1ccc(Cl)cc1` registered a logP of 3.5.

The compound `Cc1cc2ccccc2c2ccc3ccccc3c12` registered a logP of 6.31.

As to `c1cc2c3c(cccc3c1)CC2`, the logP was 4.07.

Regarding `c1ccc2cc3cc4ccccc4cc3cc2c1`, the logP stood at 5.66.

As for `Cc1ccc(C)c(C)c1C`, the logP came to 4.74.

`Cc1cccc(C)c1C` displayed a logP of 4.09.

`Cc1ccc(C)c(C)c1` returned a logP of 4.09.

Regarding `Cc1cc(C)cc(C)c1`, the logP was 4.09.

Regarding `Cc1ccc(C)c2c(C)cccc12`, the logP turned out to be 5.26.

Take `Cc1cccc2c1Cc1ccccc1-2`: the logP stood at 4.87.

In turn, `Cc1c2ccccc2cc2ccc3ccccc3c12` returned a logP of 6.31.

`Clc1cc(Cl)c(-c2ccccc2Cl)cc1Cl` gave a log partition coefficient (logP) of 6.88.

In the case of `Clc1ccc2c(ccc3ccccc32)c1`, the logP was determined as 5.2.

On to `CCC(C)C`, for which the logP worked out at 3.21.

`Cc1ccc2c(ccc3ccccc32)c1` registered a logP of 5.14.

Compound `Cc1cccc(Cl)c1` yielded a logP of 3.5.

`Cc1c(C)c2c3ccccc3ccc2c2ccccc12` returned a logP of 6.96.

With `Cc1cc2c3ccccc3ccc2c2ccccc12`, the logP was determined as 6.31.

In turn, `Cc1c2ccccc2cc2ccccc12` had a logP of 5.14.

`c1ccc2c(c1)c1ccccc1c1ccccc21`: the logP was 5.66.

`c1ccc2cc3c(ccc4ccccc43)cc2c1` registered a logP of 5.66.

Consider `c1cc2ccc3ccc4ccc5cccc6c(c1)c2c3c4c56`, for which the logP came out at 6.58.

Take `Clc1ccccc1-c1ccccc1`: the logP is 4.74.

With `Cc1ccc2cc(C)ccc2c1`, the logP amounted to 4.61. This logP and that of the compound before are within 0.2 log units of each other.

`Clc1cccc2ccccc12` showed a logP of 4.03.

Consider `Brc1ccc(Br)cc1`, for which the log partition coefficient (logP) was 3.87.

`Clc1ccc(-c2ccccc2Cl)cc1` yielded a lipophilicity (logP) of 5.46.

As to `Cc1ccc2ccccc2c1`, the logP amounted to 3.96.

`c1ccc2c(c1)ccc1cc3ccc4ccccc4c3cc12`: the logP turned out to be 6.84.

`CCCc1ccccc1` showed a logP of 3.85.

Take `C=CCCC`: the logP amounted to 2.79.

`Clc1ccc(Cl)c(Cl)c1` gave a logP of 4.28.

The compound `CCCC(C)C` had a logP of 3.74.

For `c1ccc2c(c1)cc1ccc3cccc4ccc2c1c34`, the logP turned out to be 6.12.

The compound `CCc1cccc2ccccc12` gave a logP of 4.49.

As for `Cc1cccc2ccc3cc4ccccc4cc3c12`, the logP came to 6.31.

Take `CCCCCCl`: the log partition coefficient (logP) is 3.05.

`Cc1ccc(C)c2ccccc12` displayed a logP of 4.61.

As to `Clc1ccc2ccccc2c1`, the logP is 4.03.

The compound `Cc1cccc2ccccc12` gave a logP of 3.96.

`Cc1c2ccccc2cc2c1ccc1ccccc12` displayed a logP of 6.31.

Compound `Cc1ccc2c3ccccc3c3cccc4ccc1c2c43` returned a logP of 6.77.

In turn, `CCc1c2ccccc2cc2c1ccc1ccccc12` gave a logP of 6.84.

In turn, `c1cc2cccc3c4cccc5cccc(c(c1)c23)c54` gave a logP of 6.12.

In turn, `Cc1cccc2c(C)cccc12` showed a logP of 4.61.

Compound `Clc1cc(Cl)c(Cl)c(Cl)c1` registered a logP of 4.99.

`c1ccc(CCc2ccccc2)cc1`: the logP amounted to 4.89.

As for `Clc1cccc(Cl)c1`, the logP came out at 3.57.

`Clc1cc(Cl)c(Cl)cc1Cl` yielded a logP of 4.74.

`Clc1cccc(Cl)c1Cl` came in with a logP of 4.28.

With `c1ccc2c(c1)ccc1ccccc12`, the log partition coefficient (logP) amounted to 4.49.

On to `Cc1cc(C)c(C)c(C)c1C`, for which the logP amounted to 5.39.

Take `Cc1c2ccccc2c(C)c2ccccc12`: the logP came to 5.79.

Consider `c1ccc2c(c1)ccc1c3ccccc3ccc21`, for which the logP came out at 5.66.

Compound `ClC(Cl)C(Cl)Cl` [1,1,2,2-TETRACHLOROETHANE] gave a logP of 2.64.

The compound `BrCCBr` [1,2-DIBROMOETHANE] came in with a logP of 1.74.

For `Clc1ccccc1Cl` [1,2-DICHLOROBENZENE], the logP worked out at 3.57.

The compound `ClCCCl` [1,2-DICHLOROETHANE] returned a logP of 1.46.

Compound `Clc1cc(Cl)cc(Cl)c1` [1,3,5-TRICHLOROBENZENE] registered a logP of 4.28.

Take `Clc1ccc(Cl)cc1` [1,4-DICHLOROBENZENE]: the logP is 3.57.

Take `CC(=O)Oc1cc(C)c(OC(C)=O)c2ccccc12` [ACETOMENAPHTHONE]: the lipophilicity (logP) was determined as 3.59.

In the case of `Nc1ncnc2c1ncn2[C@@H]1O[C@H](COP(=O)(O)O)[C@@H](O)[C@H]1O` [ADENOSINE PHOSPHATE], the logP is -1.68.

`c1ccc2c(c1)Cc1c-2ccc2ccccc12` [BENZO(A)FLUORENE] gave a lipophilicity (logP) of 5.4.

With `c1ccc2c3c(ccc2c1)-c1cccc2cccc-3c12` [BENZO(J)FLUORANTHENE], the lipophilicity (logP) was determined as 6.12.

Compound `c1ccc2cc3c(cc2c1)-c1cccc2cccc-3c12` [BENZO(K)FLUORANTHENE] gave a logP of 6.12.

On to `c1ccc2c(c1)-c1cccc3c1c-2cc1ccccc13` [BENZO[B]FLUORANTHENE], for which the log partition coefficient (logP) turned out to be 6.12.

For `c1ccc2c(c1)Cc1cc3ccccc3cc1-2` [BENZO[B]FLUORENE], the logP amounted to 5.4.

As to `c1ccc2c(c1)c1cccc3ccc4cccc2c4c31` [BENZO[E]PYRENE], the logP worked out at 6.12.

As for `O=C(O)CCCC[C@@H]1SC[C@@H]2NC(=O)N[C@@H]21` [BIOTIN], the logP was 0.39.

In turn, `c1ccc(-c2ccccc2)cc1` [BIPHENYL] displayed a logP of 4.03.

Compound `CCCC` [BUTANE] registered a logP of 2.81.

`CCCCCl` [BUTYL CHLORIDE] came in with a logP of 2.52.

`CCCCc1ccccc1` [BUTYLBENZYL] registered a lipophilicity (logP) of 4.74.

Regarding `ClC(Cl)(Cl)Cl` [CARBON TETRACHLORIDE], the logP stood at 2.88.

Take `Clc1ccccc1` [CHLOROBENZENE]: the logP was 2.85.

For `c1cc2c3c(c4ccc5ccccc5c4cc3c1)CC2` [CHOLANTHRENE], the logP was 6.42.

With `C1CCCCCC1` [CYCLOHEPTANE], the logP was 3.91.

Take `C1CCCCC1` [CYCLOHEXANE]: the logP was 3.35.

In turn, `C1=CCCCC1` [CYCLOHEXENE] yielded a logP of 2.81.

`C1CCCCCCC1` [CYCLOOCTANE] gave a logP of 4.47.

`C1CCCC1` [CYCLOPENTANE] came in with a logP of 2.79.

Take `C1=CCCC1` [CYCLOPENTENE]: the logP was 2.25.

Turning to `CCCCCCCCCC` [DECANE], the logP was 5.98.

`CCSCC` [DIETHYL SULFIDE]: the logP came out at 1.9.

Take `CCCl` [ETHYL CHLORIDE]: the logP stood at 1.47.

With `CCc1ccccc1` [ETHYLBENZENE], the logP turned out to be 3.32.

`c1ccc2c(c1)-c1cccc3cccc-2c13` [FLUORANTHENE]: the logP stood at 4.95.

On to `c1ccc2c(c1)Cc1ccccc1-2` [FLUORENE], for which the logP was found to be 4.22.

In the case of `Nc1nc2ncc(CNc3ccc(C(=O)N[C@@H](CCC(=O)O)C(=O)O)cc3)nc2c(=O)[nH]1` [FOLIC ACID], the logP is -2.81.

In turn, `CCCCCCC` [HEPTANE] came in with a logP of 4.4.

`Cc1c(C)c(C)c(C)c(C)c1C` [HEXAMETHYLBENZENE] came in with a logP of 6.04.

Regarding `CCCCCC` [HEXANE], the logP amounted to 3.87.

In turn, `CC(C)c1ccccc1` [ISOPROPYLBENZENE] registered a lipophilicity (logP) of 3.72.

Turning to `Cc1cccc(C)c1` [M-XYLENE], the logP is 3.44.

In turn, `C[S+](C)CC[C@H](N)C(=O)O` [METHYLMETHIONINE SULFONIUM CHLORIDE] displayed a logP of 0.28.

Regarding `CCCCCCCCC` [NONANE], the logP came out at 5.46.

For `Cc1ccccc1C` [O-XYLENE], the logP was determined as 3.44.

Consider `CCCCCCCC` [OCTANE], for which the logP came out at 4.93.

Compound `Cc1ccc(C(C)C)cc1` [P-CYMENE] yielded a logP of 4.37.

As to `Cc1ccc(C)cc1` [P-XYLENE], the logP is 3.44.

Turning to `CC(C)(CO)[C@@H](O)C(=O)NCCC(=O)O` [PANTOTHENIC ACID], the logP was -1.69.

The compound `Clc1cc(Cl)c(Cl)c(Cl)c1Cl` [PENTACHLOROBENZENE] gave a logP of 5.71.

`CCCCC` [PENTANE]: the logP came to 3.34.

`Clc1c(Cl)c(Cl)c(Cl)c(Cl)c1Cl` [PERCHLOROBENZENE] had a lipophilicity (logP) of 6.42.

In turn, `c1cc2ccc3cccc4ccc(c1)c2c34` [PYRENE] yielded a logP of 4.95.

For `ClC(Cl)=C(Cl)Cl` [TETRACHLOROETHYLENE], the logP was found to be 3.02.

In turn, `Cc1ncc(C[n+]2csc(CCO)c2C)c(N)n1` [THIAMINE ION] returned a log partition coefficient (logP) of -3.93.

Regarding `CC(Cl)(Cl)Cl` [TRICHLOROETHANE], the logP was determined as 2.48.

`ClC=C(Cl)Cl` [TRICHLOROETHYLENE] gave a logP of 2.27.

What is called logP is the decadic logarithm of the partition coefficient of the neutral form, usually between octanol and water. Lower therefore signals a more hydrophilic compound.

Values taken from ChEMBL document CHEMBL1795329, “QSPR modeling of octanol/water partition coefficient for vitamins by optimal descriptors calculated with SMILES” (Eur J Med Chem, 2008).
